Laboratory results reported in PubChem BioAssay AID238 (DTP/NCI, 2004).
Values joined by “and” are separate entries in the source; they are usually repeats but may differ in a detail not shown here. Equal values may be shown once. Toxic doses and inconclusive results are not listed.

Test system: CAF1 mice, leiomyosarcoma No.2 ip, survival T/C%
Assay: NCI In Vivo Anticancer Drug Screen. Data for tumor model Leiomyosarcoma (No. 2) (intraperitoneal) in CAF1 mice
Conditions: endpoint: mean survival time, higher = longer survival
Protocol: The antitumor activity of compounds was measured in mice bearing transplantable tumors. Survival or tumor size were measured and the results are expressed as the measurement made in the treated group (T) divided by the measurement made in the vehicle treated control group (C). The tumor model used in this assay is Leiomyosarcoma (No. 2) (intraperitoneal) in CAF1 mice

[1] = dose: 2.5 mg/kg/injection, schedule: Q01DX010 (ip), vehicle: saline
[2] = dose: 5.0 mg/kg/injection, schedule: Q01DX010 (ip), vehicle: saline
[3] = dose: 10.0 mg/kg/injection, schedule: Q01DX010 (ip), vehicle: saline
[4] = dose: 20.0 mg/kg/injection, schedule: Q01DX010 (ip), vehicle: saline
[5] = dose: 1.0 mg/kg/injection, schedule: Q01DX010 (ip), vehicle: saline
[6] = dose: 2.0 mg/kg/injection, schedule: Q01DX010 (ip), vehicle: saline
[7] = dose: 4.0 mg/kg/injection, schedule: Q01DX010 (ip), vehicle: saline
[8] = dose: 8.0 mg/kg/injection, schedule: Q01DX010 (ip), vehicle: saline
[9] = dose: 12.5 mg/kg/injection, schedule: Q01DX010 (sc), vehicle: steriod suspending solution
[10] = dose: 25.0 mg/kg/injection, schedule: Q01DX010 (sc), vehicle: steriod suspending solution
[11] = dose: 50.0 mg/kg/injection, schedule: Q01DX010 (sc), vehicle: steriod suspending solution
[12] = dose: 40.0 mg/kg/injection, schedule: Q01DX010 (ip), vehicle: saline
[13] = dose: 6.25 mg/kg/injection, schedule: Q01DX010 (ip), vehicle: saline
[14] = dose: 12.5 mg/kg/injection, schedule: Q01DX010 (ip), vehicle: saline
[15] = dose: 0.25 mg/kg/injection, schedule: Q01DX010 (ip), vehicle: saline
[16] = dose: 0.5 mg/kg/injection, schedule: Q01DX010 (ip), vehicle: saline
[17] = dose: 25.0 mg/kg/injection, schedule: Q01DX010 (ip), vehicle: saline
[18] = dose: 50.0 mg/kg/injection, schedule: Q01DX010 (ip), vehicle: saline
[19] = dose: 100.0 mg/kg/injection, schedule: Q01DX010 (ip), vehicle: saline
[20] = dose: 16.0 mg/kg/injection, schedule: Q01DX010 (ip), vehicle: saline
[21] = dose: 1.25 mg/kg/injection, schedule: Q01DX010 (ip), vehicle: saline
[22] = dose: 31.3 mg/kg/injection, schedule: Q01DX010 (ip), vehicle: saline
[23] = dose: 62.5 mg/kg/injection, schedule: Q01DX010 (ip), vehicle: saline
[24] = dose: 125.0 mg/kg/injection, schedule: Q01DX010 (ip), vehicle: saline
[25] = dose: 250.0 mg/kg/injection, schedule: Q01DX010 (ip), vehicle: saline

NC(Cc1ccc(N(CCCl)CCCl)cc1)C(=O)O (centres undefined)
T/C [1]: 191 % of control and 265 % of control
T/C [2]: 166 % of control and 207 % of control
T/C [3]: 150 % of control and 258 % of control
T/C [4]: 192 % of control

Nc1nc(=S)c2ncn(C3OC(CO)C(O)C3O)c2[nH]1 (centres undefined)
T/C [5]: 258 % of control
T/C [6]: 197 % of control and 204 % of control
T/C [7]: 118 % of control
T/C [8]: 90 % of control

Clc1ncnc2nc[nH]c12
T/C (dose: 7.5 mg/kg/injection, schedule: Q01DX010 (ip), vehicle: saline): 86 % of control and 107 % of control
T/C (dose: 15.0 mg/kg/injection, schedule: Q01DX010 (ip), vehicle: saline): 93 % of control and 103 % of control
T/C (dose: 30.0 mg/kg/injection, schedule: Q01DX010 (ip), vehicle: saline): 111 % of control and 116 % of control
T/C (dose: 60.0 mg/kg/injection, schedule: Q01DX010 (ip), vehicle: saline): 107 % of control

CC/C(=C(/CC)c1ccc(O)cc1)c1ccc(O)cc1
T/C [9]: 91 % of control and 96 % of control
T/C [10]: 96 % of control and 100 % of control
T/C [11]: 91 % of control and 92 % of control
T/C (dose: 100.0 mg/kg/injection, schedule: Q01DX010 (sc), vehicle: steriod suspending solution): 91 % of control and 100 % of control

Cn1c(N)nc2nc[nH]c2c1=S
T/C [3]: 100 % of control
T/C [4]: 120 % of control
T/C [12]: 104 % of control
T/C (dose: 80.0 mg/kg/injection, schedule: Q01DX010 (ip), vehicle: saline): 108 % of control

O=NN(CCCl)C(=O)NCCCl
T/C (dose: 3.13 mg/kg/injection, schedule: Q01DX010 (ip), vehicle: saline): 300 % of control
T/C [13]: 258 % of control and 300 % of control
T/C [14]: 115 % of control and 120 % of control

C=C1C[C@H]2[C@@H]3C=C(C)C4=CC(=O)CC[C@]4(C)[C@H]3CC[C@]2(C)[C@@]1(OC(C)=O)C(C)=O
T/C (dose: 62.5 mg/kg/injection, schedule: Q01DX010 (sc), vehicle: steriod suspending solution): 113 % of control
T/C (dose: 125.0 mg/kg/injection, schedule: Q01DX010 (sc), vehicle: steriod suspending solution): 102 % of control
T/C (dose: 250.0 mg/kg/injection, schedule: Q01DX010 (sc), vehicle: steriod suspending solution): 89 % of control
T/C (dose: 500.0 mg/kg/injection, schedule: Q01DX010 (sc), vehicle: steriod suspending solution): 94 % of control

CS(=O)(=O)OCCN(CCOS(C)(=O)=O)c1ccc(N=O)cc1
T/C [15]: 221 % of control
T/C [16]: 173 % of control
T/C [5]: 113 % of control

CS(=O)(=O)OCCC(=O)N1CCN(C(=O)CCOS(C)(=O)=O)CC1
T/C [14]: 172 % of control
T/C [17]: 224 % of control
T/C [18]: 232 % of control
T/C [19]: 304 % of control

O=c1[nH]c(=O)n(C2CC(O)C(CO)O2)cc1F (centres undefined)
T/C [2]: 118 % of control
T/C [3]: 118 % of control

C[C@@H]1C[C@@H]([C@H](O)CC2CC(=O)NC(=O)C2)C(=O)[C@@H](C)C1
T/C [2]: 100 % of control and 103 % of control
T/C [3]: 110 % of control and 111 % of control
T/C [4]: 116 % of control
T/C [12]: 163 % of control and 169 % of control

CS(=O)(=O)OCCCCOS(C)(=O)=O
T/C [13]: 100 % of control
T/C [14]: 96 % of control and 123 % of control
T/C [17]: 103 % of control
T/C [18]: 86 % of control

CC(CCC(C)OS(C)(=O)=O)OS(C)(=O)=O (centres undefined)
T/C [6]: 104 % of control
T/C [7]: 100 % of control
T/C [8]: 103 % of control and 104 % of control
T/C [20]: 117 % of control

C[C@]12C=CC(=O)C=C1CC[C@@H]1[C@@H]2[C@@H](O)C[C@@]2(C)[C@H]1CC[C@]2(O)C(=O)CO
T/C [9]: 86 % of control and 107 % of control
T/C [10]: 92 % of control and 93 % of control
T/C [11]: 100 % of control and 107 % of control

Nc1nc(=S)c2[nH]cnc2[nH]1
T/C [21]: 300 % of control
T/C [2]: 93 % of control

CN1CC[C@]23c4c5ccc(O)c4O[C@H]2C(=O)CC[C@H]3[C@H]1C5
T/C [7]: 96 % of control
T/C [8]: 92 % of control
T/C [20]: 104 % of control
T/C (dose: 32.0 mg/kg/injection, schedule: Q01DX010 (ip), vehicle: saline): 92 % of control

CS(=O)(=O)OCCCl
T/C (dose: 18.8 mg/kg/injection, schedule: Q01DX010 (ip), vehicle: saline): 100 % of control
T/C (dose: 37.5 mg/kg/injection, schedule: Q01DX010 (ip), vehicle: saline): 111 % of control
T/C (dose: 75.0 mg/kg/injection, schedule: Q01DX010 (ip), vehicle: saline): 116 % of control
T/C (dose: 150.0 mg/kg/injection, schedule: Q01DX010 (ip), vehicle: saline): 220 % of control and 269 % of control

O=c1cnn(C2OC(CO)C(O)C2O)c(=O)[nH]1 (centres undefined)
T/C (dose: 200.0 mg/kg/injection, schedule: Q01DX010 (ip), vehicle: saline): 104 % of control and 107 % of control
T/C (dose: 400.0 mg/kg/injection, schedule: Q01DX010 (ip), vehicle: saline): 104 % of control and 107 % of control
T/C (dose: 800.0 mg/kg/injection, schedule: Q01DX010 (ip), vehicle: saline): 107 % of control and 112 % of control

CN(C)c1ccc(/C=C/c2ccnc3ccccc23)cc1
T/C [2]: 96 % of control and 112 % of control
T/C [3]: 112 % of control
T/C [4]: 112 % of control
T/C [12]: 100 % of control

C=CC(CN1CC1)OC(C)=O (centres undefined)
T/C [6]: 104 % of control
T/C [8]: 176 % of control

O=C(O)c1[nH]c(=O)[nH]c(=O)c1F
T/C [21]: 112 % of control
T/C [1]: 112 % of control
T/C [2]: 120 % of control
T/C [3]: 108 % of control

CCN(CC)CCNc1ccc(C)c2sc3ccccc3c(=O)c12
T/C [14]: 116 % of control
T/C [17]: 100 % of control and 116 % of control
T/C [18]: 103 % of control
T/C [19]: 154 % of control

CCn1cnc2c(=S)nc[nH]c21
T/C (dose: 15.6 mg/kg/injection, schedule: Q01DX010 (ip), vehicle: saline): 100 % of control and 108 % of control
T/C [22]: 96 % of control and 100 % of control
T/C [23]: 100 % of control and 119 % of control
T/C [24]: 112 % of control

O=c1cn[nH]c(=O)[nH]1
T/C [23]: 114 % of control
T/C [24]: 90 % of control and 106 % of control
T/C [25]: 92 % of control and 107 % of control
T/C (dose: 500.0 mg/kg/injection, schedule: Q01DX010 (ip), vehicle: saline): 96 % of control

CC(=O)N(C)C
T/C [23]: 90 % of control
T/C [25]: 96 % of control

CC(=O)NC1=C(N2CC2)C(=O)C(NC(C)=O)=C(N2CC2)C1=O
T/C [15]: 163 % of control
T/C [16]: 222 % of control
T/C [5]: 300 % of control
T/C [6]: 100 % of control
T/C (dose: 250.0 micrograms/kg/injection, schedule: Q01DX010 (ip), vehicle: saline): 195 % of control
T/C (dose: 500.0 micrograms/kg/injection, schedule: Q01DX010 (ip), vehicle: saline): 195 % of control
T/C (dose: 1000.0 micrograms/kg/injection, schedule: Q01DX010 (ip), vehicle: saline): 300 % of control

CCCSc1ncnc2nc[nH]c12
T/C [22]: 189 % of control and 233 % of control
T/C [24]: 103 % of control and 117 % of control
T/C [25]: 103 % of control

Nc1nc(F)nc2c1ncn2C1OC(CO)C(O)C1O (centres undefined)
T/C [16]: 104 % of control
T/C [5]: 104 % of control and 113 % of control
T/C [6]: 100 % of control and 109 % of control
T/C [7]: 113 % of control and 118 % of control
T/C [8]: 86 % of control

C1CN1c1nc(N2CC2)nc(N2CC2)n1
T/C (dose: 0.13 mg/kg/injection, schedule: Q01DX010 (ip), vehicle: saline): 117 % of control
T/C [15]: 121 % of control
T/C [16]: 196 % of control and 233 % of control

N#[N+]c1cnc([O-])[nH]c1=O
T/C [1]: 213 % of control
T/C [3]: 93 % of control

COS(C)(=O)=O
T/C [14]: 108 % of control
T/C [17]: 108 % of control
T/C [18]: 112 % of control

CCOC(=O)c1[nH]c2ccccc2c1CN(CCCl)CCCl
T/C [3]: 116 % of control
T/C [4]: 170 % of control
T/C [12]: 150 % of control

Nc1nc(N)c2nc(CNc3ccc(C(=O)NC(CCC(=O)O)C(=O)O)cc3)cnc2n1 (centres undefined)
T/C (dose: 0.03 mg/kg/injection, schedule: Q01DX010 (ip), vehicle: other): 103 % of control and 110 % of control
T/C (dose: 0.05 mg/kg/injection, schedule: Q01DX010 (ip), vehicle: other): 106 % of control
T/C (dose: 0.1 mg/kg/injection, schedule: Q01DX010 (ip), vehicle: other): 106 % of control and 107 % of control
T/C (dose: 0.2 mg/kg/injection, schedule: Q01DX010 (ip), vehicle: other): 110 % of control

CCCCOP(=S)(N1CC1)N1CC1
T/C [7]: 165 % of control
T/C [8]: 223 % of control
T/C [20]: 250 % of control

O=C(Nc1ccc(NC2=NCCN2)cc1)c1ccc(C(=O)Nc2ccc(NC3=NCCN3)cc2)cc1
T/C [6]: 103 % of control and 123 % of control
T/C [8]: 123 % of control
T/C [20]: 107 % of control

N=C(N)SCc1c2ccccc2c(CSC(=N)N)c2ccccc12
T/C [1]: 172 % of control
T/C [2]: 186 % of control and 209 % of control
T/C [3]: 177 % of control and 204 % of control
T/C [4]: 109 % of control and 209 % of control
T/C [12]: 104 % of control
